# Where “and” joins values, the source holds several entries; their conditions need not be identical. Equal entries are not always repeated.
# Tests used:
# Settings in all cases: 48 h
# CU-ACC1 [1] = assay: AC50 viability; higher = less potent
# Outline: (§1)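 Three adrenocortical carcinoma cell lines in 1,536-well plates received 23 nL of each library compound at 11 concentrations and were read with CellTiter-Glo after 48 h, with 15 minutes at room temperature before measuring luminescence. Vehicle and empty-well controls served for per-plate normalisation. AC50 and area under the curve were extracted from fitted concentration-response curves, discarding all curve classes other than inhibitory or non-responding.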
# CU-ACC2 [2] = assay: AC50 viability; higher = less potent
# Outline: as §1
# CU-ACC1 [3] = assay: area under concentration-response curve (viability) (AUC (a.u.)); higher = less active
# Outline: as §1
# CU-ACC2 [4] = assay: as above
# Outline: as §1
# NCI-H295R [5] = assay: as above
# Outline: as §1
# NCI-H295R [6] = assay: AC50 viability; higher = less potent
# Outline: as §1
SMILES,AC50 viability (CU-ACC1 [1]) [µM],AC50 viability (CU-ACC2 [2]) [µM],area under concentration-response curve (CU-ACC1 [3]),area under concentration-response curve (CU-ACC2 [4]),area under concentration-response curve (NCI-H295R [5]),AC50 viability (NCI-H295R [6]) [µM]
COc1cc(F)c(F)c(Nc2ccc(I)cc2F)c1N[S+](=O)([O-])C1(C[C@H](O)CO)CC1,16.6,6.61,421,476,,
C=C1/C(=C\C=C2/CCC[C@]3(C)[C@@H]([C@H](C)CCCC(C)(C)O)CC[C@@H]23)C[C@@H](O)C[C@@H]1O,16.6,14.8,408 and 314,329 and 416,364,
CN\1C(=O)/C(=C(\N=C1NC[C@@H](N)CC2=CC=CC=C2)C3=CC=NC=C3)C4=CC5=C(C=CC=C5)C=C4,29.5,37.2,484,571,,
COc1ncc(Nc2ncc(C(C)N3CCN([S+](C)(=O)[O-])CC3)cc2-c2nc(C)nc(N)n2)cc1F (centres undefined),0.00263,0.0934,226,258,179,
Cc1c[nH]c2ncnc(N3CCC(CN)(C(=O)Nc4cccc(OC(=O)N(C)C)c4)CC3)c12,10.5,18.6,427 and 309,512,518 and 295,
O=C(CC12CC3CC(CC(C3)C1)C2)Nc1cccc2nc(NCCNCCO)ccc12,26.3,23.5,473,537,,
Cn1c(CCCCCCC(=O)NO)nc2cc(N(CCCl)CCCl)ccc21,10.5,5.9,439,479,497,
CCCNCC(O)COc1ccccc1C(=O)CCc1ccccc1 (centres undefined),23.5,23.5,417,451,,
O=C(NOCC1CC1)c1ccc(F)c(F)c1Nc1ccc(I)cc1Cl,13.2,16.6,485,527,,
O=C1[C@H](Cc2ccc(O)cc2)N2C(=O)CCN(C(=O)NCc3ccccc3)[C@H]2CN1Cc1cccc2ccccc12,11.8,4.68,531,554,496,
C/C=C/C/C=C/CCC(=O)[C@H]1O[C@H]1C(N)=O,20.9,23.5,474,554,,
CN[C@@H]1CN(C[C@H]1OC)C2=NC3=C(C=C2)C(=O)C(=C\N3C4=NC=CS4)/C(O)=O,10.2,4.56,475,474,445,
COC1=CC=C2Nc3cc(Cl)ccc3C(N=C3C=C(CN4CCCC4)C(=O)C(CN4CCCC4)=C3)=C2N1,18.6,23.5,477,528,,
CC1=C(/C=C/C(C)=C/C=C/C(C)=C/C(=O)Nc2ccc(O)cc2)C(C)(C)CCC1,0.235,0.295,232,170,179,
CN(C)C1CCN(C(=O)c2ccc(NC(=O)Nc3nc(N4CCOCC4)nc(N4CCOCC4)n3)cc2)CC1,3.32,1.86,393,458,464,
COc1cc2c(cc1OC(C)C)[C@H](c1ccc(Cl)cc1)N(c1ccc(N(C)C[C@H]3CC[C@H](N4CCN(C)C(=O)C4)CC3)cc1)C(=O)C2,16.6,20.9,427,510,,
O=C(N[C@@H](c1ccccc1)[C@@H]1CCCCN1)c1cccc(C(F)(F)F)c1Cl,10.5,33.2,371,454,212,
Cc1cc(Nc2nc(N[C@@H](C)c3ccc(F)cc3)c(C#N)cc2F)n[nH]1,18.6,20.9,516,467,,
COc1cccc([C@@H](C)NCCCc2ccccc2Cl)c1,20.9,23.5,462,584,,
Oc1cc(-c2nc(-c3ccccc3)[nH]c2-c2ccncc2)ccc1Cl,20.9,16.6,464,514,522,

SMILES,AC50 viability (CU-ACC1 [1]) [µM],AC50 viability (CU-ACC2 [2]) [µM],area under concentration-response curve (CU-ACC1 [3]),area under concentration-response curve (CU-ACC2 [4]),area under concentration-response curve (NCI-H295R [5]),AC50 viability (NCI-H295R [6]) [µM]
COc1ccc(CNc2nc(N(CCO)CCO)nc3c2ncn3C(C)C)cc1,14.8,7.42,438,502,,
CC(O)c1cc(C(=O)N[C@@H](C)Cn2ccc(-c3ccc(C#N)c(Cl)c3)n2)n[nH]1 (some centres undefined),33.2,20.9,454,488,,
CN1\N=C(N)/C2=C[N]([C@@H]3O[C@H](CO[P](O)(O)=O)[C@@H](O)[C@H]3O)C4=C2C1=NC=N4,11.8,4.68,429,464,493,
CN1\C=N/C2=CC=C(NC3=CC(=CC=C3C)NC(=O)C4=CC(=CC=C4)C(C)(C)C#N)C=C2C1=O,0.0934,8.33,445,499,518,
CC(=O)Nc1ccc(C(=O)NC(C)(C)C)cc1,5.25,0.295,331,247,284,
CC[C@@]1(O)C(=O)OCC/2=C1/C=C3\N(CC4=CC5=CC(=CC=C5N=C34)O)C2=O,2.09,0.742,271,436,518,
COC1=CC(c2cc3ccccc3[nH]2)=N/C1=C/c1[nH]c(C)cc1C,37.2,33.2,410,495,,
CN[C@@H](C)C(=O)N[C@H]1CCCC[C@H]2CC[C@@H](C(=O)N[C@@H](c3ccccc3)c3cn(CCCCc4ccc(CCCCn5cc([C@@H](NC(=O)[C@@H]6CC[C@@H]7CCCC[C@H](NC(=O)[C@H](C)NC)C(=O)N76)c6ccccc6)nn5)cc4)nn3)N2C1=O,0.166,0.332,260,303,,
c1cc(N[C@@H]2CCNC2)nc(-c2cnc3ccc(-c4cn[nH]c4)cn23)c1,0.00662,41.7,331,380,409,
CC(C)(O)CC[C@@H](O)[C@](C)(O)[C@H]1CC[C@@]2(O)C/3=C/C(=O)[C@@H]4C[C@@H](O)[C@@H](O)C[C@]4(C)[C@H]3CC[C@]12C,0.132,0.372,192,233,,
Cc1c(NC(=O)c2cc(C(N)=O)nc3cc(F)ccc23)c(C(F)(F)F)nn1Cc1ccc(C#N)cc1,1.66,10.5,460,443,462,
CCCNC(=O)[C@H]1O[C@@H]1C(=O)N[C@H](C(=O)N1CCC[C@H]1C(=O)OC)C(C)CC (some centres undefined),16.6,18.6,449,504,494,
CN1C(=O)/C(=C(NC2=CC=C(I)C=C2F)\C3=C1\N=C/N(C[C@@H](O)CO)C3=O)F,8.33,11.8,431,497,534,
CCC(=C/[C@H](C)C/C=C/C(C)=C/[C@@H](C)C(=O)[C@@H](C)[C@H](O)[C@@H](C)C/C(C)=C/C(=O)O)/C=C/[C@@H]1OC(=O)C=C[C@@H]1C,0.00105,13.2,230,344,333,
CC(C)(C)C[C@H]1N[C@@H](C(=O)N[C@H]2CC[C@H](O)CC2)[C@H](c2cccc(Cl)c2F)[C@@]12C(=O)Nc1cc(Cl)ccc12,1.48,23.5,473,461,,
CN(C)C1CCN(C(=O)c2ccc(NC(=O)Nc3ccc(-c4nc(N5CCOCC5)nc(N5CCOCC5)n4)cc3)cc2)CC1,2.35,4.17,411,345,485,
C[C@]12Cc3cn[nH]c3C[C@@H]1CC[C@@H]1[C@@H]2CC[C@@]2(C)[C@H]1CC[C@]2(C)O,0.0132,0.263,335,214,312,
C[S+]([O-])c1ccc(-c2nc(-c3ccc(F)cc3)c(-c3ccncc3)[nH]2)cc1 (centres undefined),18.6,16.6,393,420,,
CN1C(=O)C(=C/2N(C(=O)N(C3CC3)C(=O)C2=C1/NC4=CC=C(I)C=C4F)C5=CC=CC(=C5)NC(C)=O)\C,0.742,0.0661,305,372,408,
CC[C@@]1(O)C(=O)OCc2c1cc1n(c2=O)Cc2cc3c(CN(C)C)c(O)ccc3nc2-1.Cl,16.6,16.6,428,483,488,

SMILES,AC50 viability (CU-ACC1 [1]) [µM],AC50 viability (CU-ACC2 [2]) [µM],area under concentration-response curve (CU-ACC1 [3]),area under concentration-response curve (CU-ACC2 [4]),area under concentration-response curve (NCI-H295R [5]),AC50 viability (NCI-H295R [6]) [µM]
CCC[C@H](NC(=O)/C(C#N)=C/c1cccc(Br)n1)c1ccccc1,26.3,26.3,468,565,,
NCCCCNCCCN,16.6,33.2,312,422,107,
COc1cc2c(N3CCN(C(=O)Nc4ccc(OC(C)C)cc4)CC3)ncnc2cc1OCCCN1CCCCC1,16.6,7.42,401,457,,
COC1=CC=C(C=C1)C/2=C/OC3=C(C(=CC(=C3)O)O)C2=O,0.0661,0.295,267,164,208,
O=C(c1ccc(Nc2nc(C3CC3)cn3c(-c4cn[nH]c4)cnc23)c(F)c1)N1CCOCC1,3.32,14.8,366,343,,
Cc1cc2c(C(C)C)c(O)c(O)c(C=O)c2c(O)c1-c1c(C)cc2c(C(C)C)c(O)c(O)c(C=O)c2c1O,26.3,23.5,529,596,,
Oc1ccc2ccccc2c1SSc1c(O)ccc2ccccc12,41.7,23.5,487,583,,
C[C@@H](O)[C@@H](C)Oc1nc(Nc2ccc([S+](=N)([O-])C3CC3)cc2)ncc1C(F)(F)F (some centres undefined),23.5,26.3,476,567,,
CN1C(=O)c2sccc2N(C)c2nc(Nc3ccc([S+](N)(=O)[O-])cc3)ncc21,,14.8,460,467,431,5.25
O=C(CCCCCCC(=O)Nc1ccccc1)NO,2.95,3.32,415,474,,
O=C(Nc1ccc([N+](=O)[O-])cc1Cl)c1cc(Cl)ccc1O,,1.48,411,471,481,1.48
NC(=O)Nc1cc(-c2cccc(F)c2)sc1C(=O)N[C@H]1CCCNC1,,8.33,397,432,410,2.35
Cn1c2ccccc2c2c3c(c4c5ccccc5n(CCC#N)c4c21)CNC3=O,,16.6,401,535,503,14.8
CCC[C@@H](C=O)NC(=O)[C@H](CC(C)C)NC(=O)[C@H](CC(C)C)NC(=O)OCc1ccccc1,,1.48,417,438,439,1.18
CC(C)(C)C(=O)OCOP(=O)(COCCn1cnc2c(N)ncnc21)OCOC(=O)C(C)(C)C,8.33,7.42,456,527,,
OC1=CC2=C(C(=C1)O)C(=O)\C=C(/O2)C3=CC=CC=C3,,1.66,397,416,437,0.263
Cc1cc(O)c(-c2ccc([C@@H](C)CN)cc2)c2c1[nH]c(=O)c1sccc12,,0.148,203,223,128,0.00105
COC1=C(OCCCN2CCOCC2)C=C3N=CC=C(OC4=CC=C(C=C4F)\C5=C\N=C(\NC6=CC=C(F)C=C6)N(C)C5=O)C3=C1,,18.6,474,528,400,8.33
CC/C(=C(/c1ccc(O)cc1)c1ccc(OCCNC)cc1)c1ccccc1,,9.34,393,403,359,7.42
CC(C)Nc1cc(-c2c[nH]c(C(=O)N[C@H](CO)c3cccc(Cl)c3)c2)c(Cl)cn1,23.5,18.6,467,545,,

# — the supplement of paper PMC10949913
